The source made the active and inactive calls.
Experiments:
[1] = target: Fructose-bisphosphate aldolase (Mycobacterium tuberculosis, UniProt P9WQA3); assay: Fluorescence-based biochemical high throughput dose response assay for inhibitors of the fructose-bisphosphate aldolase (FBA) of M. tuberculosis.; type: functional
[2] = intracellular Trypanosoma cruzi inhibitors in host cells – cell-based, plate reader, cherry-pick samples, set 3, dose response (AID 651818); type: functional;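 also: compounds incubated with infected cells for about four days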
[3] = T. b. rhodesiense proliferation inhibition, dose response, STIB900 strain, plate reader, cherry pick (AID 651893); type: functional, cell-based; details: Trypanosoma brucei
[4] = cytotoxicity in L-6 rat myocytes, dose response, cytotoxicity control, cell-based, plate reader, cherry-pick (AID 651896); type: functional
[5] = Inhibition of T. cruzi Tulahuen strain amastigotes in L-6 muscle cells Measured in Cell-Based and Microorganism Combination System Using Plate Reader - 2138-03_Inhibitor_Dose_CherryPick_Activity.; type: functional; details: Rattus norvegicus, L6
[6] = Inhibition of Plasmodium falciparum NF54 Measured in Cell-Based System Using Plate Reader - 2138-11_Inhibitor_Dose_CherryPick_Activity.; type: functional
[7] = L. donovani amastigote growth inhibition, dose response, axenic amastigotes, plate reader, cherry pick (AID 651891); type: functional, cell-based; details: Leishmania donovani
[8] = target: DNA repair protein RAD52 homolog (Homo sapiens, UniProt P43351); type: functional, biochemical
Sequence of DNA repair protein RAD52 homolog (P43351 whole entry): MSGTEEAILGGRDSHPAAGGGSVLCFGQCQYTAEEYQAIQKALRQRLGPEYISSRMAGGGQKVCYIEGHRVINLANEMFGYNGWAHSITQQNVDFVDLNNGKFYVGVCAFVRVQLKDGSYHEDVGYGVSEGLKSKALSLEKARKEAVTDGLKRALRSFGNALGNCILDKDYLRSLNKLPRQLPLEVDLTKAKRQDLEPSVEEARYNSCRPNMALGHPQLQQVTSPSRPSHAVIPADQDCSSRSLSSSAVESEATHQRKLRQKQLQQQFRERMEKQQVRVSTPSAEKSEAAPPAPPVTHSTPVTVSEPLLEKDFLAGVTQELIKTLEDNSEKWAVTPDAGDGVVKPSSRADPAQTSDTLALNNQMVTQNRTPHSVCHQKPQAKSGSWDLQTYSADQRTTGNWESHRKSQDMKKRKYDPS

[9] = A549 cell cytotoxicity, dose response, cytotoxicity control, plate reader, cherry-pick, antagonist series (AID 743412); type: functional, cell-based
[10] = Luminescence Cell-Based Dose Confirmation HTS to Identify Inhibitors of Platelet Dense Granule Release. [Related pubchem assays: 1663 (Primary HTS), 1678 (Summary of Project)]; type: functional
[11] = target: T1, Rac GTPase-activating protein 1 (Homo sapiens, UniProt Q9H0H5); assay: MgcRacGAP GTPase-activating activity inhibitors, confirmation, biochemical, ADP Hunter fluorescence, primary and confirmatory (AID 624330); type: functional
T1 sequence (Q9H0H5 whole entry): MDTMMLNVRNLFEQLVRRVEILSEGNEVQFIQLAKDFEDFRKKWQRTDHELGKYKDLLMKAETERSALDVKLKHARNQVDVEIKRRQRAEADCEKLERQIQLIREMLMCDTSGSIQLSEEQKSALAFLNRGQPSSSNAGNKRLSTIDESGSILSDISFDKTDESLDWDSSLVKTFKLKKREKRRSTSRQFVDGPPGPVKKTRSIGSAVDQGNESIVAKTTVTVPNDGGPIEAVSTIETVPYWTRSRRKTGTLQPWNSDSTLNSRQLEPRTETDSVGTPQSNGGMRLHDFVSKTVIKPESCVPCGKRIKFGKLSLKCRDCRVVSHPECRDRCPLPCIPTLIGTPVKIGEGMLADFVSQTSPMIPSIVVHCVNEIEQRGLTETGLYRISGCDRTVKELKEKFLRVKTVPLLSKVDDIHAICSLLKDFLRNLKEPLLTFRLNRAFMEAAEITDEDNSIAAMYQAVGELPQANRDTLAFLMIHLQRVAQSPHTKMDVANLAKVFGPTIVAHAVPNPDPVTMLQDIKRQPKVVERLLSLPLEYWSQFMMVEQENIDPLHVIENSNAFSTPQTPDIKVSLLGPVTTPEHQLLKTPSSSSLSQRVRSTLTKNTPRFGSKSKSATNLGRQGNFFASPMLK

[12] = target: Luciferin 4-monooxygenase (Photinus pyralis, UniProt P08659); assay: firefly luciferase enzyme inhibitors, dose response, biochemical, luminescence (AID 1891)
Sequence of Luciferin 4-monooxygenase (P08659 whole entry): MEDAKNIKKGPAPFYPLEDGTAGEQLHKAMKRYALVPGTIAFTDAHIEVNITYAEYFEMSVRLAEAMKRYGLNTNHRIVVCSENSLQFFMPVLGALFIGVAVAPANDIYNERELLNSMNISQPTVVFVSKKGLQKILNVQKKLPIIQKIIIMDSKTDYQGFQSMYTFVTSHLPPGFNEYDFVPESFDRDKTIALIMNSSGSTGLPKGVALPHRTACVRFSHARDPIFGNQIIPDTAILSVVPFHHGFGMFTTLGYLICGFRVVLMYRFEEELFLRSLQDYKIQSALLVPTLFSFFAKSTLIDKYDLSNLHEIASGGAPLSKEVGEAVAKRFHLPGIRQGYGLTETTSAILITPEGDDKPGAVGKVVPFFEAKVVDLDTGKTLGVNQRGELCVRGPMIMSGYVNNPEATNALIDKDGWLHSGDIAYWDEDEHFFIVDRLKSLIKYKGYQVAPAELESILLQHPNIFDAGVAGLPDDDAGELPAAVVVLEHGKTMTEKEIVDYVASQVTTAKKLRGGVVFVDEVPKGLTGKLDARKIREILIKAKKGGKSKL

Aminopeptidase N = target: T2, Aminopeptidase N (Plasmodium falciparum FcB1/Columbia, UniProt O96935); assay: P. falciparum M1AAP inhibitors, biochemical, fluorogenic H-Leu-NHMec substrate, 1536-well (AID 1445); parameters: species or system Plasmodium falciparum 3D7, 3D7
T2 sequence (O96935 whole entry): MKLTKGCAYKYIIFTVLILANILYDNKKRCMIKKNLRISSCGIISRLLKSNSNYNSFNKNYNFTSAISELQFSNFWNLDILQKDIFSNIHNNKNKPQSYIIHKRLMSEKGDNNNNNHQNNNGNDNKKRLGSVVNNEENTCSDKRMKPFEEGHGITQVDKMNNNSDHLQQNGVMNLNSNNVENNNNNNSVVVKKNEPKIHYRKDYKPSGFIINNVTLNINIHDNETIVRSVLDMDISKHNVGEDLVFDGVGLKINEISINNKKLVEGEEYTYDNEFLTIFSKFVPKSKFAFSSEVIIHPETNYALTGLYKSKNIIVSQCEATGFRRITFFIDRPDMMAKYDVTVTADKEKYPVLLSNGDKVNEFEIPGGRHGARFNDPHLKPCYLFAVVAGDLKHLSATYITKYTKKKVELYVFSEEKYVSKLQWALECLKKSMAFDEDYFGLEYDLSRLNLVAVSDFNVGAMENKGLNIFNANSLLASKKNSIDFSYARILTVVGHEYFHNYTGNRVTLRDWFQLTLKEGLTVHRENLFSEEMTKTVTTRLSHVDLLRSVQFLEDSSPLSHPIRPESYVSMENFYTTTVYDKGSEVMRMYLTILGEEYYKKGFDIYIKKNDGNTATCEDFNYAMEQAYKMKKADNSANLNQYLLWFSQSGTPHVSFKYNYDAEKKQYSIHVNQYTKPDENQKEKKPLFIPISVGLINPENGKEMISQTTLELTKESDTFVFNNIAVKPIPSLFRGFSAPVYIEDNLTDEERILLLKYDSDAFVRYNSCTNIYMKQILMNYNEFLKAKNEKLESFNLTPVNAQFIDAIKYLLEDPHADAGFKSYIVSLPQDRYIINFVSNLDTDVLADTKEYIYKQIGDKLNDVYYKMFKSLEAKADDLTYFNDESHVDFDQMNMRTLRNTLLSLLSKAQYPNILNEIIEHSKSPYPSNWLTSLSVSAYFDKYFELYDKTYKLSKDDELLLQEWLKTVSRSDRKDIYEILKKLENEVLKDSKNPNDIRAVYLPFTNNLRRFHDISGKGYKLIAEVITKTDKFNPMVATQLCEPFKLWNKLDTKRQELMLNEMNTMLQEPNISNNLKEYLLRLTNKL

[13] = HeLa cell cytotoxicity, dose response, cytotoxicity control for MgcRacGAP inhibitor project (AID 624300); type: functional
[14] = LGR2 antagonists, dose response, cell-based, HEK293, CRE-luciferase reporter, cherry pick, set 2 (AID 743343); type: functional;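 also: transfected cells were stimulated with diluted bursicon conditioned medium after compound addition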
[15] = MC4R antagonists, dose response, counter-screen for LGR2 antagonist project, cell-based, plate reader, cherry pick (AID 743444); type: functional;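 also: transfected HEK 293 cells stimulated with alpha-MSH peptide; potency of inhibitors of the alpha-MSH evoked signal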
[16] = target: ADP-ribosylation factor GTPase-activating protein 1 (Rattus norvegicus, UniProt Q62848); assay: Fluorescence polarization-based biochemical high throughput dose response screening assay to identify inhibitors of ADP-ribosylation factor GTPase activating protein 1 (ARFGAP1).; type: functional
Sequence of ADP-ribosylation factor GTPase-activating protein 1 (Q62848 whole entry, the tested form may be a part): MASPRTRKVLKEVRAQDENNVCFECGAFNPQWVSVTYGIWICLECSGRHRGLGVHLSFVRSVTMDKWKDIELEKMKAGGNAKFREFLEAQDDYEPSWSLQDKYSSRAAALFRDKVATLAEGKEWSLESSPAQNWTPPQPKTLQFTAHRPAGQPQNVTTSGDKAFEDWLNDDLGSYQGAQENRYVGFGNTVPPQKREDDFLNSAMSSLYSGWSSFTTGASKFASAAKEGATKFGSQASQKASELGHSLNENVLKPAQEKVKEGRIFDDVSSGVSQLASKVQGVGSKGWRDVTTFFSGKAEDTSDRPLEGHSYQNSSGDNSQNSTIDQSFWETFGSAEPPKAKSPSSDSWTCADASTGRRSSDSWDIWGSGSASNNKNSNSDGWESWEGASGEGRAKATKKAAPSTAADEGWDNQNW

[17] = target: Arf-GAP with SH3 domain, ANK repeat and PH domain-containing protein 1 (Homo sapiens, UniProt Q9ULH1); type: functional;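 also: biochemical fluorescence polarization dose–response screen measuring inhibition of ASAP1; ASAP1 GAP domain stimulating GTP hydrolysis by truncated human ARF1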
Sequence of Arf-GAP with SH3 domain, ANK repeat and PH domain-containing protein 1 (Q9ULH1 whole entry, the tested form may be a part): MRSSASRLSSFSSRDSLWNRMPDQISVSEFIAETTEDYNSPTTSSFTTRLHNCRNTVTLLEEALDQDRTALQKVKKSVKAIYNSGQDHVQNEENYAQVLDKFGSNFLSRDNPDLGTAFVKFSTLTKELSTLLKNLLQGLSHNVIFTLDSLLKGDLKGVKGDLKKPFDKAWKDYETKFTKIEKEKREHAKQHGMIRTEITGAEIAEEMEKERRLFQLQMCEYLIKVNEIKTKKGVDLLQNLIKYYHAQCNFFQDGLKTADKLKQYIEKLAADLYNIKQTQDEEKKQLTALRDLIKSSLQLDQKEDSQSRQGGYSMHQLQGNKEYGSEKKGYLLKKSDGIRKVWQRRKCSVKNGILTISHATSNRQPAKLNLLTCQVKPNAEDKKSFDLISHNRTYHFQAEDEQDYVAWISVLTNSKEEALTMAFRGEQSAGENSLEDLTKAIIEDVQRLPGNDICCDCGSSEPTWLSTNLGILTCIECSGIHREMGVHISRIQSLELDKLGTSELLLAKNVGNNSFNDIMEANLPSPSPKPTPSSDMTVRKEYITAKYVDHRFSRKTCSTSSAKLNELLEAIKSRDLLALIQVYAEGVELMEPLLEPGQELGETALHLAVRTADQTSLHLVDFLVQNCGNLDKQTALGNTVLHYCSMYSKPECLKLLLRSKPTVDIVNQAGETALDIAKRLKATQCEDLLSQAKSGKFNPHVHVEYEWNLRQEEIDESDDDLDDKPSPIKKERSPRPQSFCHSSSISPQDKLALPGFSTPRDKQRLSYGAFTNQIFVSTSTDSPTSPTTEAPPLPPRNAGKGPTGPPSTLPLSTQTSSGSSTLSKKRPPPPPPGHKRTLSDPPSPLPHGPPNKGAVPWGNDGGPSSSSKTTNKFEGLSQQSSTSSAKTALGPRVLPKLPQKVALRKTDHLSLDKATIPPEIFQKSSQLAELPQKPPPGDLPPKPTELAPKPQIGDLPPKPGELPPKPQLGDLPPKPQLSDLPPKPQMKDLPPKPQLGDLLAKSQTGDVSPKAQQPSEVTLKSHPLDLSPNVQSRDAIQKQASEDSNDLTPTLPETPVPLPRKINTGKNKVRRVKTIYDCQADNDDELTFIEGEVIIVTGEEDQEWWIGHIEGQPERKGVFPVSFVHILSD

[18] = target: T3, Sentrin-specific protease 1 (Homo sapiens, UniProt Q9P0U3); assay: potency of human SENP1 inhibitors, dose response, biochemical, kinetic FRET (AID 651697); type: functional; details: read-out: IC50_Mean
T3 sequence (Q9P0U3 whole entry): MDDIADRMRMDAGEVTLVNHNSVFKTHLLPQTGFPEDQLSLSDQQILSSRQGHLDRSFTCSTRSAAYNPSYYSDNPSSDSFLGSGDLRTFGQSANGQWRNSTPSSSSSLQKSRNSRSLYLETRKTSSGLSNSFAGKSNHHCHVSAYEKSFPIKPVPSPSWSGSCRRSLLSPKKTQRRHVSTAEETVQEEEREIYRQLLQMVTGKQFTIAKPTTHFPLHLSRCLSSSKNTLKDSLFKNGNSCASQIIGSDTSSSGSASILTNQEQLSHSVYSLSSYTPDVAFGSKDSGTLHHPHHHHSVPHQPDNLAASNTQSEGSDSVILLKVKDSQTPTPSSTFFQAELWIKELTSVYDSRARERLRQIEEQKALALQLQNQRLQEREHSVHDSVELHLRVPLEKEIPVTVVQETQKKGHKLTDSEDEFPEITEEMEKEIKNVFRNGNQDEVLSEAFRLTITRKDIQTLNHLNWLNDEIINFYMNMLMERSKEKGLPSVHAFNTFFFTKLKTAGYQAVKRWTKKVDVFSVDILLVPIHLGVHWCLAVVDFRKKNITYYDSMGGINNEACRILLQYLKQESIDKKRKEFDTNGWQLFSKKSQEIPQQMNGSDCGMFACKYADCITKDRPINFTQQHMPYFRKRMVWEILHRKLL

[19] = target: T4, Heat shock factor protein 1 (Mus musculus, UniProt P38532); assay: inhibition of MG132-induced HSE-luciferase signal, confirmation, cell-based, NIH3T3, luminescence, dose retest (AID 2382); type: functional;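 also: NIH3T3 fibroblasts with HSF1-driven luciferase reporter stressed by proteasome inhibitor MG132; luminescence from HSF1-driven luciferase expression after 8 hours of MG132 stress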
T4 sequence (P38532 whole entry): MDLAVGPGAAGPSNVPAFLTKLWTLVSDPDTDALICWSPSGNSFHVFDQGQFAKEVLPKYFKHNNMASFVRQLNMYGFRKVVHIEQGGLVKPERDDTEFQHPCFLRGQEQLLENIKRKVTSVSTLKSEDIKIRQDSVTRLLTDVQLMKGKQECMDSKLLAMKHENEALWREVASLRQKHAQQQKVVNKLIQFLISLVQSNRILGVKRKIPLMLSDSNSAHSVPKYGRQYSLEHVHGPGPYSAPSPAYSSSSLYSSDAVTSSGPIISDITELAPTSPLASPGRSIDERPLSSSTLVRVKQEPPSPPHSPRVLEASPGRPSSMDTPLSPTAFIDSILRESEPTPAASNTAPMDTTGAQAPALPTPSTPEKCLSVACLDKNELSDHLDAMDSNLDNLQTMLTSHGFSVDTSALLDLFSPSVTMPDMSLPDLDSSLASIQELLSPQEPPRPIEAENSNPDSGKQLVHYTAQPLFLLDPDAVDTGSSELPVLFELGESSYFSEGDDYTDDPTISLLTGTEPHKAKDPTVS

[20] = target: T3, Sentrin-specific protease 1; assay: Dose response confirmation of small molecule inhibitors of the catalytic domain of the SUMO protease, SENP1 in a FRET assay.; type: functional; details: read-out: IC50_Mean
[21] = Counterscreen for inhibitors of Trypanosoma brucei methionyl tRNA synthetase (MetRS): Luminescence-based cell-based high throughput dose response assay to identify compounds that are cytotoxic to Jurkat human T lymphocyte cells.; type: functional

Sequence of Fructose-bisphosphate aldolase (P9WQA3 whole entry): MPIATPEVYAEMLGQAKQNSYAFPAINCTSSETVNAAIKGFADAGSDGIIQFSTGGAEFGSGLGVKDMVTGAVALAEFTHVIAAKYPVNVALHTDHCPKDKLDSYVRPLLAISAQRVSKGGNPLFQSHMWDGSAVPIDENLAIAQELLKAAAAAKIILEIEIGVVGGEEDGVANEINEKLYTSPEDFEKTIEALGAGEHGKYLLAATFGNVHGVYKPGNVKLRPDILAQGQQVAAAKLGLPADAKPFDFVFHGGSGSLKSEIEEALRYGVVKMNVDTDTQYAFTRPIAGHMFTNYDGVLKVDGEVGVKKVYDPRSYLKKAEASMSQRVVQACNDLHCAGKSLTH

Which IC50 [1] does the source give for Cc1coc2c1c(C)cc1oc(=O)c(CC(=O)NCCCN3CCCC3=O)c(C)c12 here?
The IC50 was 1.43 µM (active).

With COc1ccc(S(=O)(=O)N(CCCN2CCCC2=O)Cc2cc3c(C)cc(C)cc3nc2O)cc1 as the compound, how does the IC50 [1] read?
Its IC50 is > 3.33 µM (active).

With C[C@H](CO)N1C[C@H](C)[C@@H](CN(C)Cc2ccc(C(F)(F)F)cc2)Oc2c(NC(=O)c3ccncc3)cccc2C1=O as the compound, how does the AC50 [2] read?
Its AC50 is 0.105 µM (active).

What about the IC50 [3] of the same compound?
Its IC50 is 7.22 µM (inactive).

What about the IC50 [4] of the same compound?
Its IC50 is 36.1 µM (inactive).

What about the IC50 [5] of the same compound?
Its IC50 is 3.79 µM (inactive).

And the IC50 [6]?
The IC50 was 3.79 µM (inactive).

What about the IC50 [7] of the same compound?
Its IC50 is 41.4 µM (inactive).

With CCN1CCN(Cc2ccc(C(=O)Nc3ccc(C)c(NCc4cnc(NC(=O)OC)cn4)c3)cc2C(F)(F)F)CC1 as the compound, how does the AC50 [8] read?
Its AC50 is 15.1 µM (active).

Which AC50 [9] does the source give for Nc1ccc(-c2nc3ccc(N)cc3s2)cc1 here?
The AC50 was > 52 µM (inactive).

What about the EC50 [10] of the same compound?
Its EC50 is 17.5 µM (active).

And the IC50 [11]?
The IC50 was 70.2 µM (active).

What about the EC50 [12] of the same compound?
Its EC50 is 8.6 µM (active).

And the IC50 (Aminopeptidase N)?
Its IC50 is 21.3 µM (active).

What about the CC50 [13] of the same compound?
The CC50 was 100 µM (active).

And the AC50 [14]?
Its AC50 is 7.8 µM (active).

And the AC50 [15]?
Its AC50 is 7.01 µM (active).

With Cc1ccc2nc(SCC(=O)N3CCC(C)CC3)nc(=O)n2c1 as the compound, how does the IC50 [16] read?
Its IC50 is 26.2 µM (inactive).

What about the IC50 [17] of the same compound?
The IC50 was 22.9 µM (inactive).

For COc1cccc(NC(=O)Cn2nnc(C(=O)Nc3cc(Cl)ccc3OC)c2N)c1, which IC50 [16] is on record?
Its IC50 is 5.04 µM (active).

And the IC50 [17]?
The IC50 was 8.8 µM (active).

Which results are given for NC(=O)CCC(C(=O)O)N1C(=O)c2ccc(O)cc2C1=O (stereo not drawn)?
IC50 [18]: 23.9 µM (inactive); EC50 [19]: > 195 µM (not active); IC50 [20]: 16.9 µM (active)

For c1ccc(CCNCCCOc2cccc3ccccc23)cc1, which IC50 [11] is on record?
Its IC50 is 156 µM (active).

What about the CC50 [13] of the same compound?
The CC50 was 75.9 µM (active).

With C[C@H]1CN([C@@H](C)CO)C(=O)c2cccc(NC(=O)c3ccncc3)c2O[C@H]1CN(C)Cc1ccc(-c2ccccc2)cc1 as the compound, how does the AC50 [2] read?
Its AC50 is 0.08 µM (active).

And the IC50 [3]?
The IC50 was 11.2 µM (inactive).

What about the IC50 [4] of the same compound?
Its IC50 is 47.5 µM (inactive).

And the IC50 [5]?
The IC50 was 3.21 µM (inactive).

And the IC50 [6]?
Its IC50 is 3.21 µM (inactive).

And the IC50 [7]?
Its IC50 is > 100 µM (inactive).

With COc1ccc(NC(=O)COC(=O)CCCOc2ccc(Cl)cc2Cl)cc1 as the compound, how does the IC50 [21] read?
The IC50 was 83.3 µM (inactive).

Source: ChEMBL document CHEMBL1201862, “PubChem BioAssay data set” (2004)
